Reference: patent US20100210635A1, “RENIN INHIBITORS” (Takeda Pharmaceutical Company Limited, priority 2006, published 2010)
pIC50: −log10 of the molar value.

molecular target: T1, Recombinant human renin (Homo sapiens, UniProt P00797); test: In vitro enzymatic activity assay of Renin inhibitors (fluorescence, QXL520/HiLyteFluo488 peptide substrate); assay type: biochemical; settings: recombinant human renin 3 nM, 1 μM substrate, 37° C., pH 7.4; values given as ranges; read-out: IC50 of Exemplified Compounds Against Renin
T1 construct: isolate the active form (residues 67-406); made in house; host or cells: FreeStyle 293-F cells (transient expression of pcDNA3.1(+)/hREN)
T1 sequence (P00797 67-406): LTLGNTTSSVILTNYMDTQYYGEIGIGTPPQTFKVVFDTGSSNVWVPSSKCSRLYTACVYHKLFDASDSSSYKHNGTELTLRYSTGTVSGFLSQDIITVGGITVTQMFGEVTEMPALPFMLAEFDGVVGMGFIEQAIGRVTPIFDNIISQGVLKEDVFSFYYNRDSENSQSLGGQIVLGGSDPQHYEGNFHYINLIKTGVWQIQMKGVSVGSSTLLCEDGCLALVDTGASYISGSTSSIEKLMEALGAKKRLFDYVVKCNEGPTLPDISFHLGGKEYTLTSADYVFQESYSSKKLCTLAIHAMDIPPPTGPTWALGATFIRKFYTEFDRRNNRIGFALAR
From the text: Test compounds in varying concentrations may be reacted with recombinant human renin in the presence of substrate, e.g., QXL520-γ-Abu-Ile-His-Pro-Phe-His-Leu-Val-Ile-His-Thr-Lys (HiLyteFluo488)-Arg-OH (Anaspec, San Jose, Calif.). The reaction can be followed kinetically using fluorescence (excitation λ=485 nm; emission λ=538 nm). Inhibition constants (IC50) may be calculated by non-linear curve fitting of the compound concentrations and fluorescence intensities to the standard IC50 equation.
Solutions of test compounds in varying concentrations (<2 mM final concentration) are prepared in dimethyl sulfoxide (DMSO) and then diluted into assay buffer comprising 50 mM Hepes, 1 mM EDTA, 1 mM DTT, 0.1 mg/ml BSA, 0.01% Brij35, pH 7.4. Alternatively, the assay can be performed with a high BSA concentration, wherein the buffer contains an additional 2% BSA.
Recombinant human renin (3 nM final concentration) is added to the dilutions and pre-incubated with the compounds for 10 minutes at 37° C. As described in Examples A-C above, human Renin can be obtained by expressing preprorenin (residue 1-406) in mammalian cells, treating the prorenin (residues 24-406) contained in the culture supernatant with trypsin, and isolate the active form (residues 67-406). After pre-incubation, the reaction is initiated with 1 μM of substrate QXL520-γ-Abu-Ile-His-Pro-Phe-His-Leu-Val-Ile-His-Thr-Lys (HiLyteFluo488)-Arg-OH (Anaspec, San Jose, Calif.). The final DMSO in the assay is 5%. The total volume of the reaction mixture is 20 μL, which can be placed on Greiner 384-well small volume plates.
Renin activity may be determined via fluorescence (excitation λ=485 nm; emission λ=538 nm), e.g., on a Molecular Devices SPECTROmax GEMINI XPS. The fluorescence intensity is determined upon the addition of substrate and determined again after incubation at 37° C. for one hour. The fluorescence intensity of a blank (no inhibition) using vehicle alone is also determined. Renin activity is linearly proportional to the change in fluorescence observed (final−initial).
The percent inhibition of Renin at a given compound concentration is defined as:
100%×[1−(Fcompound/Fblank)]
where Fcompound is the observed fluorescence at a given concentration of test compound and Fblank is the observed fluorescence in the presence of vehicle alone.
The pIC50 value (negative log of the molar concentration of the compound that produces 50% inhibition) of a test compound is calculated by non-linear least squares curve fitting of the equation: […]
to percent inhibition versus compound concentration. The 50% inhibitory concentration (IC50) of a test compound is calculated by raising 10 to the negative pIC50 (10^−pIC50).

| pIC50 | Structure (SMILES) |
| --- | --- |
| 5.30 to 6.30 | O=C(CCc1ccccc1Oc1cccc(CO)c1)N1CCNC[C@H]1Cc1ccccc1 [Example 35, (R)-1-(2-Benzylpiperazin-1-yl)-3-(2-(3-(hydroxymethyl)phenoxy)phenyl)propan-1-one] |
| 5.30 to 6.30 | CC(=O)c1cccc(Oc2ccccc2CCC(=O)N2CCNC[C@H]2Cc2ccccc2)c1 [Example 36, (R)-3-(2-(3-Acetylphenoxy)phenyl)-1-(2-benzylpiperazin-1-yl)propan-1-one] |
| 5.30 to 6.30 | NC(=O)c1cccc(Oc2ccccc2CCC(=O)N2CCNC[C@H]2Cc2ccccc2)c1 [Example 37, (R)-3-(2-(3-(2-benzylpiperazin-1-yl)-3-oxopropyl)phenoxy)benzamide] |
| 5.30 to 6.30 | CC(=O)NCc1cccnc1Oc1ccccc1CCC(=O)N1CCNC[C@H]1Cc1ccccc1 [Example 38, (R)—N-((2-(2-(3-(2-benzylpiperazin-1-yl)-3-oxopropyl)phenoxy)-pyridin-3-yl)methyl)acetamide] |
| > 6.30 | CC(=O)NCc1c(C)cc(C)nc1Oc1ccccc1CCC(=O)N1CCNC[C@H]1Cc1ccccc1 [Example 39, (R)—N-((2-(2-(3-(2-benzylpiperazin-1-yl)-3-oxopropyl)phenoxy)-4,6-dimethylpyridin-3-yl)methyl)acetamide] |
| > 6.30 | CC(=O)NCc1cc(C)ccc1Oc1ccccc1CCC(=O)N1CCNC[C@H]1Cc1ccccc1 [Example 40, (R)—N-(2-(2-(3-(2-benzylpiperazin-1-yl)-3-oxopropyl)phenoxy)-5-methylbenzyl)acetamide] |
| > 6.30 | COc1ccc(Oc2ccccc2CCC(=O)N2CCNC[C@H]2Cc2ccccc2)c(CNC(C)=O)c1 [Example 41, (R)—N-(2-(2-(3-(2-benzylpiperazin-1-yl)-3-oxopropyl)phenoxy)-5-methoxybenzyl)acetamide] |
| 5.30 to 6.30 | CC(=O)NCc1ccc(C)nc1Oc1ccc(C)cc1CCC(=O)N1CCNC[C@H]1Cc1ccccc1 [Example 42, (R)—N-((2-(2-(3-(2-benzylpiperazin-1-yl)-3-oxopropyl)-4-methylphenoxy)-6-methylpyridin-3-yl)methyl)acetamide] |
| > 6.30 | CC(=O)NCc1cc(C)ccc1Oc1ccc(C)cc1CCC(=O)N1CCNC[C@H]1Cc1ccccc1 [Example 43, (R)—N-(2-(2-(3-(2-benzylpiperazin-1-yl)-3-oxopropyl)-4-methylphenoxy)-5-methylbenzyl)acetamide] |
| 5.30 to 6.30 | CC(=O)NCc1ccc(C)nc1Oc1cc(C)ccc1CCC(=O)N1CCNC[C@H]1Cc1ccccc1 [Example 44, (R)—N-((2-(2-(3-(2-benzylpiperazin-1-yl)-3-oxopropyl)-5-methylphenoxy)-6-methylpyridin-3-yl)methyl)acetamide] |
| 5.30 to 6.30 | CC(=O)NCc1cc(C(F)(F)F)ccc1Oc1cc(C)ccc1CCC(=O)N1CCNC[C@H]1Cc1ccccc1 [Example 45, (R)—N-(2-(2-(3-(2-benzylpiperazin-1-yl)-3-oxopropyl)-5-methylphenoxy)-5-(trifluoromethyl)benzyl)acetamide] |
| > 6.30 | CC(=O)NCc1cc(C)ccc1Oc1cc(C)ccc1CCC(=O)N1CCNC[C@H]1Cc1ccccc1 [Example 46, (R)—N-(2-(2-(3-(2-benzylpiperazin-1-yl)-3-oxopropyl)-5-methylphenoxy)-5-methylbenzyl)acetamide] |
| 5.30 to 6.30 | CC(=O)NCc1cc(C(F)(F)F)ccc1Oc1ccc(C)cc1CCC(=O)N1CCNC[C@H]1Cc1ccccc1 [Example 47, (R)—N-(2-(2-(3-(2-benzylpiperazin-1-yl)-3-oxopropyl)-4-methylphenoxy)-5-(trifluoromethyl)benzyl)acetamide] |
| 5.30 to 6.30 | CC(=O)NCCCc1ccccc1Oc1ccccc1CCC(=O)N1CCNC[C@H]1Cc1ccccc1 [Example 48, (R)—N-(3-(2-(2-(3-(2-benzylpiperazin-1-yl)-3-oxopropyl)phenoxy)-phenyl)propyl)acetamide] |
| > 6.30 | CC(=O)NCCc1cc(C)ccc1Oc1ccccc1CCC(=O)N1CCNC[C@H]1Cc1ccccc1 [Example 49, (R)—N-(2-(2-(3-(2-benzylpiperazin-1-yl)-3-oxopropyl)phenoxy)-5-methylphenethyl)acetamide] |
| > 6.30 | Cc1ccc(Oc2ccccc2CCC(=O)N2CCNC[C@H]2Cc2ccccc2)cc1 [Example 50, (R)-1-(2-benzylpiperazin-1-yl)-3-(2-(p-tolyloxy)phenyl)propan-1-one] |

| pIC50 | Structure (SMILES) |
| --- | --- |
| 5.30 to 6.30 | COc1ccc(Oc2ccccc2CCC(=O)N2CCNC[C@H]2Cc2ccccc2)cc1 [Example 51, (R)-1-(2-benzylpiperazin-1-yl)-3-(2-(4-methoxyphenoxy)-phenyl)propan-1-one] |
| 4.30 to 5.30 | O=C(CCC1(c2ccccc2)CCCCC1=O)N1CCNC[C@H]1Cc1ccccc1 (stereo partly drawn) [Example 52, 2-(3-((R)-2-benzylpiperazin-1-yl)-3-oxopropyl)-2-phenylcyclohexanone] |
| > 6.30 | O=C(CCc1ccccc1Cc1ccccc1)N1CCNC[C@H]1Cc1ccccc1 [Example 53, (R)-3-(2-benzylphenyl)-1-(2-benzylpiperazin-1-yl)propan-1-one] |
| 4.30 to 5.30 | Cc1nc(-c2ccc(Cl)cc2)c(CCC(=O)N2CCNC[C@H]2Cc2ccccc2)o1 [Example 54, (R)-1-(2-benzylpiperazin-1-yl)-3-(4-(4-chlorophenyl)-2-methyloxazol-5-yl)propan-1-one] |
| 4.30 to 5.30 | O=C(CCc1nc2ccccc2oc1=O)N1CCNC[C@H]1Cc1ccccc1 [Example 55, (R)-3-(3-(2-benzylpiperazin-1-yl)-3-oxopropyl)-2H-benzo[b][1,4]-oxazin-2-one] |
| > 6.30 | O=C(CCc1ccccc1Cc1ccc(Cl)cc1)N1CCNC[C@H]1Cc1ccccc1 [Example 56, (R)-1-(2-benzylpiperazin-1-yl)-3-(2-(4-chlorobenzyl)phenyl)propan-1-one] |
| < 4.30 | COc1ccccc1OCC(=O)N1CCNC[C@H]1Cc1ccccc1 [Example 57, (R)-1-(2-benzylpiperazin-1-yl)-2-(2-methoxyphenoxy)ethanone] |
| 4.30 to 5.30 | O=C(CCN(c1ccccc1)c1ccccc1)N1CCNC[C@H]1Cc1ccccc1 [Example 58, (R)-1-(2-benzylpiperazin-1-yl)-3-(diphenylamino)propan-1-one] |
| < 4.30 | COc1cc(CCC(=O)N2CCNC[C@H]2Cc2ccccc2)ccc1OC(C)=O [Example 59, (R)-4-(3-(2-benzylpiperazin-1-yl)-3-oxopropyl)-2-methoxyphenyl acetate] |
| 5.30 to 6.30 | O=C(CCC(=O)N1CCNC[C@H]1Cc1ccccc1)N(c1ccccc1)c1ccccc1 [Example 60, (R)-4-(2-benzylpiperazin-1-yl)-4-oxo-N,N-diphenylbutanamide] |
| > 6.30 | CC1(C)CC(C(CC(=O)N2CCNC[C@H]2Cc2ccccc2)c2ccccc2)CCO1 (stereo partly drawn) [Example 61, 1-((R)-2-benzylpiperazin-1-yl)-3-(2,2-dimethyltetrahydro-2H-pyran-4-yl)-3-phenylpropan-1-one] |
| 4.30 to 5.30 | O=C(COc1cccc(Cc2ccccc2)c1)N1CCNC[C@H]1Cc1ccccc1 [Example 62, (R)-2-(3-benzylphenoxy)-1-(2-benzylpiperazin-1-yl)ethanone] |
| 5.30 to 6.30 | O=C(CCc1nc(-c2ccccc2)c(-c2ccccc2)o1)N1CCNC[C@H]1Cc1ccccc1 [Example 63, (R)-1-(2-benzylpiperazin-1-yl)-3-(4,5-diphenyloxazol-2-yl)propan-1-one] |
| 4.30 to 5.30 | O=C(NC1(CC(=O)N2CCNC[C@H]2Cc2ccccc2)CCCCC1)c1ccccc1 [Example 64, (R)—N-(1-(2-(2-benzylpiperazin-1-yl)-2-oxoethyl)cyclohexyl)benzamide] |
| 5.30 to 6.30 | O=C(CSC(c1ccccc1)c1ccccc1)N1CCNC[C@H]1Cc1ccccc1 [Example 65, (R)-2-(benzhydrylthio)-1-(2-benzylpiperazin-1-yl)ethanone] |
